Laboratory results: patent US10471046B2, “Method for treating, preventing, or reducing the risk of skin infection” (Melinta Subsidiary Corp., priority 2014, dated 2019)
Values after ≈ are worked out from the molar mass of the structure shown.

Tested on: S. aureus
Assay: Minimum inhibitory concentrations (MICs) for S. aureus of exemplary compounds (Table 2)
Assay type: cell-based
Settings: Staphylococcus aureus, minimum inhibitory concentrations for S. aureus; read-out: MICs
How it was run: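 MICs (μg/mL) against S. aureus come from microtiter-tray dilution susceptibility testing per NCCLS M7-A5, comparing growth with and without compound.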

In order of falling MIC:
1. NC[C@H]1CN(c2ccc(-c3ccc(Cn4cnnn4)cc3)c(F)c2)C(=O)O1 [Compound 1032, 5-(S)-Aminomethyl-3-(2-fluoro-4′-tetrazol-1-ylmethyl-biphenyl-4-yl)-oxazolidin-2-one]  32 µg/mL (≈ 86.9 µM)
2. CC(=O)NC[C@H]1CN(c2ccc(-c3ccc(C(=N)NCc4ccco4)cc3)c(F)c2)C(=O)O1 [Compound 4222, N-{3-[2-Fluoro-4′-(N-furan-2-ylmethyl-carbamimidoyl)-biphenyl-4-yl]-2-oxo-oxazolidin-5-(S)-ylmethyl}-acetamide]  16 µg/mL (≈ 35.5 µM)
3. CC(=O)NC[C@H]1CN(c2ccc(-c3ccc(NC(=O)NCCCn4ccnc4)cc3)c(F)c2)C(=O)O1 [Compound 6001, N-(3-{2-Fluoro-4′-[3-(3-imidazol-1-yl-propyl)-ureido]-biphenyl-4-yl}-2-oxo-oxazolidin-5-(S)-ylmethyl)-acetamide]  16 µg/mL (≈ 32.4 µM)
4. CC(=O)NC[C@H]1CN(c2ccc(-c3ccc([C@@H](O)CNCc4cocn4)cc3)c(F)c2)C(=O)O1 [Compound 4199, N-[3-(2-Fluoro-4′-{1-(R)-hydroxy-2-[(oxazol-4-ylmethyl)-amino]-ethyl}-biphenyl-4-yl)-2-oxo-oxazolidin-5-(S)-ylmethyl]-acetamide]  4 µg/mL (≈ 8.54 µM)
5. CC(=O)NC[C@H]1CN(c2ccc(-c3ccc(CNCCc4cnn[nH]4)cc3)c(F)c2)C(=O)O1 [Compound 4266, N-[3-(2-Fluoro-4′-{[2-(3H-[1,2,3]triazol-4-yl)-ethylamino]-methyl}-biphenyl-4-yl)-2-oxo-oxazolidin-5-(S)-ylmethyl]-acetamide]  4 µg/mL (≈ 8.84 µM)
6. CCc1ccc(CNCc2ccc(-c3ccc(N4C[C@H](CNC(C)=O)OC4=O)cc3F)cc2)s1 [Compound 4162, N-[3-(4′-{[(5-Ethyl-thiophen-2-ylmethyl)-amino]-methyl}-2-fluoro-biphenyl-4-yl)-2-oxo-oxazolidin-5-(S)-ylmethyl]-acetamide]  2 µg/mL (≈ 4.15 µM)
7. CC(=O)NC[C@H]1CN(c2ccc(-c3ccc(CNCCSc4ncc[nH]4)cc3)c(F)c2)C(=O)O1 [Compound 5008, N-[3-(2-Fluoro-4′-{[2-(1H-imidazol-2-ylsulfanyl)-ethylamino]-methyl}-biphenyl-4-yl)-2-oxo-oxazolidin-5-(S)-ylmethyl]-acetamide]  2 µg/mL (≈ 4.14 µM)
8. CCN(Cc1ccncc1)Cc1ccc(-c2ccc(N3C[C@H](CNC(C)=O)OC3=O)cc2F)cc1 [Compound 4035, N-(3-{4′-[(Ethyl-pyridin-4-ylmethyl-amino)-methyl]-2-fluoro-biphenyl-4-yl}-2-oxo-oxazolidin-5-(S)-ylmethyl)-acetamide]  2 µg/mL (≈ 4.2 µM)
9. CSCCNc1ncnc2c1ncn2Cc1ccc(-c2ccc(N3C[C@H](CNC(C)=O)OC3=O)cc2F)cc1 [Compound 1108]  2 µg/mL (≈ 3.64 µM)
10. CC(=O)NC[C@H]1CN(c2ccc(-c3ccc(Cn4cnc5c(NCCCCO)ncnc54)cc3)c(F)c2)C(=O)O1 [Compound 1109, N-(3-{2-Fluoro-4′-[6-(4-hydroxy-butylamino)-purin-9-ylmethyl]-biphenyl-4-yl}-2-oxo-oxazolidin-5-(S)-ylmethyl)-acetamide]  2 µg/mL (≈ 3.65 µM)
11. CC(=O)NC[C@H]1CN(c2ccc(-c3ccc(CNC(=O)[C@H](N)c4ccc(F)cc4)cc3)c(F)c2)C(=O)O1 [Compound 4297, N-{4′-[5-(S)-(Acetylamino-methyl)-2-oxo-oxazolidin-3-yl]-2′-fluoro-biphenyl-4-ylmethyl}-2-(R)-amino-2-(4-fluoro-phenyl)-acetamide]  2 µg/mL (≈ 3.93 µM)
12. CC(=O)NC[C@H]1CN(c2ccc(-c3ccc(Cn4cnc5c(=O)[nH]cnc54)cc3)c(F)c2)C(=O)O1 [Compound 1111, N-{3-[2-Fluoro-4′-(6-oxo-1,6-dihydro-purin-9-ylmethyl)-biphenyl-4-yl]-2-oxo-oxazolidin-5-(S)-ylmethyl}-acetamide]  2 µg/mL (≈ 4.2 µM)
13. CC(=O)NC[C@H]1CN(c2ccc(-c3ccc(CN4CCN(CC(N)=O)CC4)cc3)c(F)c2)C(=O)O1 [Compound 1003, 2-(4-{4′-[5-(S)-(Acetylamino-methyl)-2-oxo-oxazolidin-3-yl]-2′-fluoro-biphenyl-4-ylmethyl}-piperazin-1-yl)-acetamide]  2 µg/mL (≈ 4.14 µM)
14. CC(=O)NC[C@H]1CN(c2ccc(-c3ccc(CNCc4ccc(Br)o4)cc3)c(F)c2)C(=O)O1 [Compound 4078, N-[3-(4′-{[(5-Bromo-furan-2-ylmethyl)-amino]-methyl}-2-fluoro-biphenyl-4-yl)-2-oxo-oxazolidin-5-(S)-ylmethyl]-acetamide]  2 µg/mL (≈ 3.87 µM)
15. CC(=O)NC[C@H]1CN(c2ccc(-c3ccc(CNNC4=NCCN4)cc3)c(F)c2)C(=O)O1 [Compound 2049, N-(3-{4′-[N′-(4,5-Dihydro-1H-imidazol-2-yl)-hydrazinomethyl]-2-fluoro-biphenyl-4-yl}-2-oxo-oxazolidin-5-(S)-ylmethyl)-acetamide]  2 µg/mL (≈ 4.54 µM)
16. CC(=O)NC[C@H]1CN(c2ccc(-c3ccc([C@H](CO)NCc4ccnc5ccccc45)cc3)c(F)c2)C(=O)O1 [Compound 4031, N-[3-(2-Fluoro-4′-{2-hydroxy-1-(R)-[(quinolin-4-ylmethyl)-amino]-ethyl}-biphenyl-4-yl)-2-oxo-oxazolidin-5-(S)-ylmethyl]-acetamide]  2 µg/mL (≈ 3.78 µM)
17. CC(=O)NC[C@H]1CN(c2ccc(-c3ccc(C(=O)NCc4ccncc4)nc3)c(F)c2)C(=O)O1 [Compound 4188, 5-{4-[5-(S)-(Acetylamino-methyl)-2-oxo-oxazolidin-3-yl]-2-fluoro-phenyl}-pyridine-2-carboxylic acid (pyridin-4-ylmethyl)-amide]  1 µg/mL (≈ 2.16 µM)
18. CC(=O)NC[C@H]1CN(c2ccc(-c3ccc(CNCc4c(C)noc4C)cc3)c(F)c2)C(=O)O1 [Compound 4109, N-[3-(4′-{[(3,5-Dimethyl-isoxazol-4-ylmethyl)-amino]-methyl}-2-fluoro-biphenyl-4-yl)-2-oxo-oxazolidin-5-(S)-ylmethyl]-acetamide]  1 µg/mL (≈ 2.14 µM)
19. CC(=O)NC[C@H]1CN(c2ccc(-c3ccc(NC(=O)NCc4ccccn4)cc3)c(F)c2)C(=O)O1 [Compound 6005, N-{3-[2-Fluoro-4′-(3-pyridin-2-ylmethyl-ureido)-biphenyl-4-yl]-2-oxo-oxazolidin-5-(S)-ylmethyl}-acetamide]  1 µg/mL (≈ 2.09 µM)
20. CC(=O)NC[C@H]1CN(c2ccc(-c3ccc(COCc4ccncc4)cc3)c(F)c2)C(=O)O1 [Compound 4196, N-{3-[2-Fluoro-4′-(pyridin-4-ylmethoxymethyl)-biphenyl-4-yl]-2-oxo-oxazolidin-5-(S)-ylmethyl}-acetamide]  1 µg/mL (≈ 2.22 µM)
21. CC(=O)NC[C@H]1CN(c2ccc(-c3ccc(C(=O)NCc4nccs4)cc3)c(F)c2)C(=O)O1 [Compound 4143, 4′-[5-(S)-(Acetylamino-methyl)-2-oxo-oxazolidin-3-yl]-2′-fluoro-biphenyl-4-carboxylic acid (thiazol-2-ylmethyl)-amide]  1 µg/mL (≈ 2.13 µM)
22. CC(=O)NC[C@H]1CN(c2ccc(-c3ccc(CNCc4cnco4)cc3)c(F)c2)C(=O)O1 [Compound 4208, N-[3-(2-Fluoro-4′-{[(oxazol-5-ylmethyl)-amino]-methyl}-biphenyl-4-yl)-2-oxo-oxazolidin-5-(S)-ylmethyl]-acetamide]  1 µg/mL (≈ 2.28 µM)
23. CC(=O)NC[C@H]1CN(c2ccc(-c3ccc(CN4CCC(F)CC4)cc3)c(F)c2)C(=O)O1 [Compound 1094, N-{3-[2-Fluoro-4′-(4-fluoro-piperidin-1-ylmethyl)-biphenyl-4-yl]-2-oxo-oxazolidin-5-(S)-ylmethyl}-acetamide]  1 µg/mL (≈ 2.25 µM)
24. CC(=O)NC[C@H]1CN(c2ccc(-c3ccc(CN4CCN(C=O)CC4)cc3)c(F)c2)C(=O)O1 [Compound 1006, N-{3-[2-Fluoro-4′-(4-formyl-piperazin-1-ylmethyl)-biphenyl-4-yl]-2-oxo-oxazolidin-5-(S)-ylmethyl}-acetamide]  0.5 µg/mL (≈ 1.1 µM)
25. CC(=O)NC[C@H]1CN(c2ccc(-c3ccc(C[S+]([O-])c4nnnn4C)cc3)c(F)c2)C(=O)O1 (stereo partly drawn) [Compound 2020, N-{3-[2-Fluoro-4′-(1-methyl-1H-tetrazole-5-sulfinylmethyl)-biphenyl-4-yl]-2-oxo-oxazolidin-5-(S)-ylmethyl}-acetamide]  0.25 µg/mL (≈ 0.529 µM)
26. CC(=O)NC[C@H]1CN(c2ccc(-c3ccc(C[S+]([O-])Cc4ccncc4)cc3)c(F)c2)C(=O)O1 (stereo partly drawn) [Compound 4212, N-{3-[2-Fluoro-4′-(pyridin-4-ylmethanesulfinylmethyl)-biphenyl-4-yl]-2-oxo-oxazolidin-5-(S)-ylmethyl}-acetamide]  0.25 µg/mL (≈ 0.519 µM)
27. CC(=O)NC[C@H]1CN(c2ccc(-c3ccc(CNCc4cnnn4C)cc3)c(F)c2)C(=O)O1 [Compound 4272, N-[3-(2-Fluoro-4′-{[(3-methyl-3H-[1,2,3]triazol-4-ylmethyl)-amino]-methyl}-biphenyl-4-yl)-2-oxo-oxazolidin-5-(S)-ylmethyl]-acetamide]  0.25 µg/mL (≈ 0.552 µM)
28. CC(=O)NC[C@H]1CN(c2ccc(-c3ccc(Cn4ccnn4)c(F)c3)c(F)c2)C(=O)O1 [Compound 1009, N-[3-(2,3′-Difluoro-4′-[1,2,3]triazol-1-ylmethyl-biphenyl-4-yl)-2-oxo-oxazolidin-5-(S)-ylmethyl]-acetamide]  0.25 µg/mL (≈ 0.585 µM)
29. O=C1O[C@@H](Cn2ccnn2)CN1c1ccc(-c2ccc(CNCc3cnn[nH]3)cc2)c(F)c1 [Compound 4268, 3-(2-Fluoro-4′-{[(3H-[1,2,3]triazol-4-ylmethyl)-amino]-methyl}-biphenyl-4-yl)-5-(R)-[1,2,3]triazol-1-ylmethyl-oxazolidin-2-one]  0.25 µg/mL (≈ 0.557 µM)
30. CC(=O)NC[C@H]1CN(c2ccc(-c3ccc(CNCc4cnoc4)cc3)c(F)c2)C(=O)O1 [Compound 4038, N-[3-(2-Fluoro-4′-{[(isoxazol-4-ylmethyl)-amino]-methyl}-biphenyl-4-yl)-2-oxo-oxazolidin-5-(S)-ylmethyl]-acetamide]  0.25 µg/mL (≈ 0.57 µM)

Same assay, conditions: Staphylococcus aureus, read-out: MICs

In order of rising MIC:
1. CC(=O)NC[C@H]1CN(c2ccc(-c3ccc(CNCc4cncnc4)cc3)c(F)c2)C(=O)O1 [Compound 4203, N-[3-(2-Fluoro-4′-{[(pyrimidin-5-ylmethyl)-amino]-methyl}-biphenyl-4-yl)-2-oxo-oxazolidin-5-(S)-ylmethyl]-acetamide]  1 µg/mL (≈ 2.22 µM)
2. CC(=O)NC[C@H]1CN(c2ccc(-c3ccc(Cc4nc(=O)o[nH]4)cc3)c(F)c2)C(=O)O1 [Compound 1016, N-{3-[2-Fluoro-4′-(5-(S)-oxo-2,5-(S)-dihydro-[1,2,4]oxadiazol-3-ylmethyl)-biphenyl-4-yl]-2-oxo-oxazolidin-5-(S)-ylmethyl}-acetamide]  4 µg/mL (≈ 9.38 µM)
